From patent US10487045B2, “Adamantane derivative and use thereof” (TOHOKU UNIVERSITY, priority 2016, dated 2019) come the findings set out here.

Test [1] concerns Kir6.1 defective mice administered with corticosterone. Put plainly: Anxiety-related behavioral tests in Kir6.1 defective mice administered with corticosterone. It is filed as in vivo. As to conditions: Kir6.1 defective mice + corticosterone; TP-014 1 mg/kg oral once a day for 2 weeks. As for the experimental part: (§1) Using WT mice (C57BL/6J, Japan SLC, two months old) administered with corticosterone (dose of 5 mg/kg was administered once a day for 2 weeks); and Kir6.1 defective mice administered with corticosterone, as disease model mice showing anxiety-like symptoms, five behavioral tests regarding anxiety-related behavior were conducted. Note that, the Kir6.1 defective mice were obtained from Professor Susumu Seino, School of Medicine of Kobe University (Miki T et al., Nature Medicine 2002, 8, 466-472).
(§2) To the WT mice and Kir6.1 defective mice administered with corticosterone, TP-014 (1 mg/kg) was administered via the oral route once a day for 2 weeks (chronic treatment). As a result, it was confirmed that a significant anxiety symptom acceleration improving effect was obtained. […]
(§3) The time until a mouse placed in a black box (dark place) feels anxiety to light and comes out of the box to a bright place) was measured. […]
(§4) In the cage for housing a mouse is filled with wood chip bedding and 20 marbles are placed such that a mouse can see them. […] The number of marbles buried and hidden in the wood chip bedding is counted. […]
(§5) Using the same test apparatus as in the light/dark test method, a mouse is placed in a dark place, and then, sound (treble) is produced for 30 seconds and thereafter electrical stimulation is given for 3 seconds. […] The immobility time of the mouse is measured. […]

The test system of a further test is APP23 mice. Put plainly: Immunoblotting of hippocampus for phosphorylation of CaMKII, CaMKIV and ERK. In kind it is in vivo. The settings on record: APP23 mice chronically treated, conditions as Test Example 4. As for the experimental part: The hippocampus of APP23 mouse was excised out. To hippocampal slices, an SDS sample buffer was added to prepare a suspension, which was subjected to immunoblotting using antibodies against CaMKII, CaMKIV and ERK (CaMKII: Fukunaga et al., J. Biol. Chem. 1992, 267, 22527-22533, CaMKIV: Kasahara et al., J. Biol. Chem. 2001, 276, 24044-24050, ERK: manufactured by Sigma-Aldrich). In this manner, phosphorylation of the individual proteins was analyzed. CaMKII, CaMKIV and ERK are molecules all considered to play an important role in memory formation. As a result, it was observed that phosphorylation of CaMKII decreases in ordinary APP23 mice; whereas, in APP23 mice chronically treated with TP-014 (the treatment conditions are the same as in the case of Test Example 4), phosphorylation of CaMKII is accelerated.
GluA1 (Ser-831), Synapsin I (Ser-603) and CREB (Ser-133), which are molecules known to be activated if CaMKII is activated. These molecules were analyzed by immunoblotting of hippocampal slice sections suspended in an SDS sample buffer. Antibodies against the individual molecules were obtained from Millipore. It is shown that activation of GluA1 (Ser-831) and CREB (Ser-133) is induced by activation of CaMKII. FIG. 5a and FIG. 5c show bands (image) actually obtained by electrophoresis of immunoblots.
Background: A western blot detects proteins with antibodies after separation by electrophoresis.

Another test concerns ob/ob. The test can be described thus: Hypoglycemic effect, blood glucose level by assay kit. It is filed as in vivo. The settings on record: 1 mg/kg chronic treatment for 4 weeks; effect on and after 3 weeks; vs ob/ob (saline). The procedure: A hypoglycemic effect by TP-014 was checked by measuring the blood glucose level by an assay kit (manufactured by Technicon International co). The measurement was carried out for 4 weeks. […] As a control, tolbutamide was used. Kir6.2 channel binds to SUR1 ([…]) on the cell membrane to form a channel. Action mechanism is considered due to Kir6.2 channel inhibitory action. Tolbutamide binds to SUR1 to inhibit Kir6.2 channel.

The subject of test [2] is WT mice administered with corticosterone. Put plainly: Anxiety-related behavioral tests (elevated plus-maze, light/dark, marble burying, open field, fear conditioning) in WT mice administered with corticosterone. The settings on record: WT mice + corticosterone 5 mg/kg; TP-014 1 mg/kg oral once a day for 2 weeks; all five tests. In kind it is in vivo. The procedure:
as §1, §2, §3, §4, §5

The target of another test is T1, Kir6.2 channel (Mus musculus, UniProt Q61743).
T1 construct: expressed in transfected cells; host or cells: Neuro2A (N2A) cells, transient transfection with pcDNA3.1-Kir6.2 (gift of Dr. Toru Ishizuka, Tohoku University)
T1 sequence (Q61743 1-390): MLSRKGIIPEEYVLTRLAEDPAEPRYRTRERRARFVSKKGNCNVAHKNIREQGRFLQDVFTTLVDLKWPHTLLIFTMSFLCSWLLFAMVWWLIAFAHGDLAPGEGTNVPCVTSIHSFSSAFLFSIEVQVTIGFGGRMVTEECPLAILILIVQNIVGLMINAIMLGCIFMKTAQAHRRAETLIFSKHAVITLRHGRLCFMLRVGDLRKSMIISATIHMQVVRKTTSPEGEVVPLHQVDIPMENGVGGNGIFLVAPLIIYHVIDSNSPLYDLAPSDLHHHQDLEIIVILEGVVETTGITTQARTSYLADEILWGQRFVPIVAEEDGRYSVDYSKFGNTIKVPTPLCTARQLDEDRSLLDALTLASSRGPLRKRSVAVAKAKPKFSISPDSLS
The test can be described thus: Patch-clamp measurement of outward potassium current in Kir6.2 channel-overexpressing cells. It is filed as cell-based. As to conditions: 10 nM TP-014, Kir6.2 channel-overexpressing cells, membrane potential changed toward a plus side. The procedure: Using Kir6.2 channel-overexpressing cells obtained in Test Example 1, potassium current flowing outside from the cells was measured by an ordinary patch-clamp method. ATP-sensitive potassium channel (Kir6.2 channel) was localized in the cell membrane of the nerve cells. If the channel is inhibited and closed, the threshold of the nerve cell membrane rises to produce a state analogous to the state where an action potential is temporarily generated, with the result that potassium current flows out from cells outside and, in place, calcium current flows into the cells from outside. […] This was confirmed by applying immunoblotting (the same conditions as in Test Example 1 were employed except that anti-Kir6.2 channel antibody, n=5) with an anti-Kir6.2 channel antibody (prepared based on a customary method) to Kir6.2 channel-overexpressing cells (prepared by the aforementioned method).
Background: Patch clamp records ionic current or voltage across a cell membrane.

The subject of test [3] is olfactory bulbectomized mice (OBX mice). Put plainly: Cognitive function tests (Y-maze, new object recognition, fear conditioning, LTP) in olfactory bulbectomized mice. It is filed as in vivo. The settings on record: chronic administration (2 weeks).

The structures appear in SMILES notation.

Regarding `O=C(N[C@@H](c1ccccc1)[C@H]1[C@H]2C[C@@H]3C[C@](Cl)(C2)C[C@@]1(OC(=O)C(F)(F)F)C3)C(F)(F)F` [TP-014, (1S,2R,3S,5S,7S)-5-chloro-2-((R)-phenyl(2,2,2-trifluoroacetamido)methyl)adamantan-1-yl 2,2,2-trifluoroacetate], in test [1], the anxiety-like symptoms result is listed as “no improvement effect”. For the same molecule, in the test on APP23 mice, the “phosphorylation of CaMKII in hippocampus” value is reported as “accelerated”. The blood glucose level result with ob/ob is “significantly decreased”. Also, in test [2], the “acceleration of anxiety-like symptom” value was “improve acceleration of anxiety-like symptom”. At Kir6.2 channel, the outward potassium current entry is “suppressed”. In test [3], the “cognitive dysfunction of OBX mice” value was “significantly improved”.
